This is an account of results in paper PMC12193833, “Toxicity Assessment and Antifungal Potential of Copper(II) and Silver(I) Complexes with 1,10-Phenanthroline-5,6-dione Against Drug-Resistant Clinical Isolates of Cryptococcus gattii and Cryptococcus neoformans” (Journal of Fungi, 2025).

≈ marks a conversion by molar mass, not a printed value.

Usually MIC stands for the lowest concentration that inhibits growth of the organism.

Data set [1] concerns C. gattii clinical isolates. Put plainly: MIC/MFC of test compounds, microdilution. It counts as cell-based, Cryptococcus gattii. The conditions noted are these: for MIC: read-out: MIC. The source says:
(§1) Six clinical isolates belonging to the Cryptococcus genus were obtained from patients who attended the Instituto Nacional de Infectologia Evandro Chagas (INI), Fundação Oswaldo Cruz (FIOCRUZ), and were kindly provided by Dr. Rodrigo Almeida-Paes (INI-FIOCRUZ). To comply with ethical standards and institutional agreements between UFRJ and FIOCRUZ, patient data were not disclosed. In this sense, the C. neoformans isolates were designated CFP00213 (213), CFP00223 (223), and CFP00350 (350), while the C. gattii isolates were labeled CFP00023 (23), CFP00025 (25), and CFP00027 (27). Before each experiment, an aliquot of the culture was transferred from Sabouraud dextrose agar (2% glucose, 1% peptone, and 0.5% yeast extract) to RPMI 1640 medium (Sigma-Aldrich, St. Louis, MO, USA), pH 7.2, buffered with 0.165 M MOPS (Sigma-Aldrich, St. Louis, MO, USA). RPMI medium induces the expression of capsular polysaccharides, the primary virulence factor of Cryptococcus cells. The cultures were incubated at 37 °C for 48 h to promote cell proliferation, stimulate metabolic activation, and enhance capsular development. Yeast cell counts were determined using a Neubauer chamber.
(§2) Following MIC determination, the MFC was assessed by inoculating 10 µL from wells showing no visible fungal growth onto Sabouraud dextrose agar. […] To further support and strengthen the evidence of the anti-Cryptococcus activity of the Cu-phendione and Ag-phendione complexes, we additionally performed MIC/MFC assays using well-characterized standard reference strains: ATCC 28957, H99, T1444 (all C. neoformans), and R265 (C. gattii).
In general terms: In broth dilution the organism is exposed to a series of concentrations in liquid medium.

For data set [2], the system named is C. neoformans clinical isolates. Nature of the data set: MIC/MFC of test compounds, microdilution. Type of data set: cell-based, Cryptococcus neoformans. Conditions: for MIC: read-out: MIC.
Description: as §1, §2

Another data set has as its system hamsters. Further details: method as in doi:10.1016/j.ejmcr.2022.100093. The conditions noted are these: 1 mg/kg five times per week for nine weeks; cited from earlier work.
Data set [3] relates to Galleria mellonella larvae. Nature of the data set: In vivo acute toxicity, single treatment. Conditions: single inoculation. On the procedure:
(§3) In this set of experiments, G. mellonella larvae weighing approximately 0.2–0.3 g and displaying clear, uniform coloration were used. The larvae were inoculated (10 µL/larva) using an insulin syringe (BD Ultra-Fine, Franklin Lakes, NJ, USA) at the last left proleg. […] We also assessed their coloration through visual analysis as an indicator of stress levels. Throughout the experiments, the larvae were maintained at 37 °C [19, 42]. Two distinct treatment protocols were designed to evaluate the effects of the test compounds on larval survivability, as detailed below.
For the acute toxicity analysis, the test compounds were administered to the larvae in a single inoculation at concentrations ranging from 1000 to 125 μM. Each group consisted of 10 larvae, while the control group received only sterile PBS with 4% DMSO. […] The SI was calculated using the following equation: SI = G. mellonella CC50/Cryptococcus MIC.

Data set [4] concerns C. gattii reference strain R265. Put plainly: MIC of complexes against reference strain. It counts as cell-based, Cryptococcus gattii. The source says: (§4) To further support and strengthen the evidence of the anti-Cryptococcus activity of the Cu-phendione and Ag-phendione complexes, we additionally performed MIC/MFC assays using well-characterized standard reference strains: ATCC 28957, […], […] (all C. neoformans), and […]).

Data set [5] has as its system C. neoformans reference strains (ATCC 28957, H99, T1444). Nature of the data set: MIC of complexes against reference strains. Type of data set: cell-based, Cryptococcus neoformans.
Description: as §4

Data set [6] has as its system Galleria mellonella larvae. Nature of the data set: In vivo chronic toxicity, multiple treatment. On the procedure:
as §3
For the chronic toxicity analysis, larvae were inoculated daily for five consecutive days with the test complexes (Cu-phendione or Ag-phendione) at a high concentration of 62.5 μM. Each group consisted of 10 larvae, while the control group received only sterile PBS with 4% DMSO.

For another data set, the system named is mice. Details: method as in doi:10.1039/c2tx00010e. The conditions noted are these: cited from earlier work.
Data set [7] concerns C. neoformans or C. gattii. Nature of the data set: Stability of antifungal activity (MIC repeated every six months over two years). It counts as cell-based, Cryptococcus neoformans and Cryptococcus gattii. Conditions: same DMSO solution, room temperature, protected from light, MIC every six months for 730 days. An excerpt:
To evaluate the stability of the antifungal activity of the test complexes, the MIC assay was repeated every six months over a two-year period using the same Ag-phendione or Cu-phendione solution. The solutions were stored at room temperature and protected from light to maintain their chemical integrity.

Data set [8] concerns hemocytes of G. mellonella larvae. It counts as in vivo, Galleria mellonella. The conditions noted are these: single inoculation, any concentration tested (15.6–1000 µM), 24 h. As to the method:
The hemocyte density in the hemolymph of larvae inoculated with both complexes was assessed to evaluate potential immunological changes in G. mellonella. […] To analyze hemocyte density, a ventral caudal incision was made between the last prolegs of each larva using a surgical scalpel, and 10 μL of hemolymph was collected. The hemolymph was then diluted 1:100 in 990 μL of an anticoagulant buffer solution (98 mM NaOH, 186 mM NaCl, 17 mM EDTA, and 41 mM citric acid, pH 4.5). The number of hemocytes in each dilution was subsequently counted using a Neubauer chamber (Thermo Fisher Scientific, Waltham, MA USA).

The test system of another data set is G. mellonella. The conditions noted are these: cited from earlier work.
Data set [9] has as its system C. gattii clinical isolates. Put plainly: Susceptibility to clinically available antifungals, CLSI M27-A3 microdilution. It counts as cell-based. The conditions noted are these: Cryptococcus gattii.
Description: as §1
(§5) The susceptibility profile was evaluated using the microdilution method in RPMI 1640 medium buffered with 0.165 M MOPS, following the M27-A3 protocol for yeasts established by the Clinical and Laboratory Standards Institute (CLSI). […] Each fungal isolate was classified as either wild-type or non-wild-type for each antifungal based on the epidemiological cutoff values provided in CLSI M59 ED3, 2020 [32].

For data set [10], the system named is C. neoformans clinical isolates. The data set is described as above. It counts as cell-based. The conditions noted are these: Cryptococcus neoformans.
Description: as §1, §5

Data set [11] relates to six clinical Cryptococcus isolates. Put plainly: Susceptibility to clinically available antifungals, all six isolates. Type of data set: cell-based, Cryptococcus neoformans and Cryptococcus gattii. Conditions: across all six clinical Cryptococcus isolates.
Description: as §1, §5

Setting [12] is: all C. gattii clinical isolates.
The mark [13] stands for this setting: all C. neoformans clinical isolates.
[14] abbreviates: 62.5 µM daily for five consecutive days.
Setting [15] is: 24 h, C. gattii isolate 23, 37 °C.
Setting [16] is: 24 h, C. gattii isolate 25, 37 °C.
Setting [17] is: 24 h, C. gattii isolate 27, 37 °C.
Setting [18] is: C. gattii isolate 23, value in brackets.
Setting [19] is: C. gattii isolate 25, value in brackets.
The mark [20] stands for this setting: C. gattii isolate 27, value in brackets.
[21] abbreviates: 24 h, C. neoformans isolate 213, 37 °C.
Where [22] appears, read: 24 h, C. neoformans isolate 223, 37 °C.
[23] abbreviates: 24 h, C. neoformans isolate 350, 37 °C.
[24] abbreviates: C. neoformans isolate 213, value in brackets.
Where [25] appears, read: C. neoformans isolate 223, value in brackets.
[26] abbreviates: C. neoformans isolate 350, value in brackets.

Regarding `O=C1C(=O)c2cccnc2-c2ncccc21.O=C1C(=O)c2cccnc2-c2ncccc21.[Ag+].[O-][Cl+3]([O-])([O-])[O-]` [Ag-phendione, [Ag(phendione)2]ClO4], the MFC came out at 12.5 µM in [1] (C. gattii isolate 23); 12.5 µM in data set [1] (C. gattii isolate 25); 12.5 µM in [1] (C. gattii isolate 27); 12.5 µM in data set [1] (setting [12]); 25 µM in data set [2] (C. neoformans isolate 213); 25 µM in [2] (C. neoformans isolate 223). The MFC in data set [2] (C. neoformans isolate 350) and in [2] (setting [13]) was 25 µM in each case. In addition, the minimum inhibitory concentration (MIC) in [1] (C. gattii isolate 23), in [1] (C. gattii isolate 25), in [1] (C. gattii isolate 27), in [1] (setting [12]), in data set [2] (C. neoformans isolate 213) and in data set [2] (C. neoformans isolate 223) was 1.56 µM in each case. The minimum inhibitory concentration (MIC) is listed as 1.56 µM in [2] (C. neoformans isolate 350); 1.56 µM in [2] (setting [13]); 0.19 µM in data set [4]; 0.19 µM in data set [5] (C. neoformans ATCC 28957); 0.78 µM in [5] (C. neoformans H99); 0.78 µM in [5] (C. neoformans T1444). Moreover, the “Deaths, changes in behavior, diet or body weight” value in the data set on hamsters is “no deaths or changes in behavior, diet, or body weight”. In addition, the “Urea, creatinine, AST, ALT and alkaline phosphatase levels vs control” value with hamsters is recorded as “no differences”. Also, in data set [3], the “Changes in melanization or silk/cocoon production” value was “no visible changes in melanization or silk/cocoon production”. The Larval survival was found to be 100% in data set [3] (125–1000 µM, 10 µL/larva, 37 °C) and 100% in data set [6] (daily inoculation 62.5 µM for up to five days). Also, in data set [6] (setting [14]), the “Alterations in stress indicators (melanization, cocoon formation)” value is reported as “no alterations”. In addition, the “Chronic toxicity (larval survival monitored over seven days)” value in [6] (setting [14]) is recorded as “non-toxic”. Further, in the data set with mice (45 mg/kg daily for five days plus seven days observation), the “Deaths, behavioral, dietary or body weight changes” value is recorded as “no deaths or behavioral, dietary, or body weight changes”. The “AST and ALT activities vs control” value in the data set on mice (45 mg/kg daily for five days) is on record as “No significant differences”. In addition, the “Acute toxicity: highest dose with 100% tolerance” value with mice (acute) was 150 mg/kg. Besides, in data set [7], the “Stability of antifungal activity (MIC variation)” value was “No variation in MIC values”. For the same compound, the “Hemocyte density vs PBS control” value in [8] was “did not significantly affect hemocyte density”.
Consider `CC[C@H](C)C[C@H](C)CCCCCCCCC(=O)N[C@H]1C[C@@H](O)[C@@H](NCCN)NC(=O)[C@@H]2[C@@H](O)CCN2C(=O)[C@H]([C@H](O)CCN)NC(=O)[C@H]([C@H](O)[C@@H](O)c2ccc(O)cc2)NC(=O)[C@@H]2C[C@@H](O)CN2C(=O)[C@H]([C@@H](C)O)NC1=O` [Caspofungin, caspofungin], for which the Hemocyte density result with G. mellonella was “do not increase hemocyte density”. Besides, the minimum inhibitory concentration (MIC) in data set [9] (setting [15]) is greater than 8 µg/mL; in [9] (setting [16]), greater than 8 µg/mL; in [9] (setting [17]), greater than 8 µg/mL; in data set [9] (setting [18]), greater than 7.3 µM; in data set [9] (setting [19]) it was greater than 7.3 µM; in data set [9] (setting [20]) it was greater than 7.3 µM. Moreover, the minimum inhibitory concentration (MIC) was greater than 8 µg/mL in data set [10] (setting [21]); greater than 8 µg/mL in [10] (setting [22]); greater than 8 µg/mL in data set [10] (setting [23]); greater than 7.3 µM in data set [10] (setting [24]); greater than 7.3 µM in data set [10] (setting [25]); greater than 7.3 µM in data set [10] (setting [26]). In [11], this compound gave a minimal inhibitory concentration (MIC) greater than 8 µg/mL.
With `C[C@@H](c1ncncc1F)[C@](O)(Cn1cncn1)c1ccc(F)cc1F` [Voriconazole, voriconazole], the minimal inhibitory concentration (MIC) in data set [9] (setting [15]) is 4 µg/mL; in [9] (setting [16]), 2 µg/mL; in data set [9] (setting [17]), 4 µg/mL; in data set [9] (setting [18]), 11.4 µM; in data set [9] (setting [19]), 5.72 µM; in data set [9] (setting [20]), 11.4 µM. Besides, the minimum inhibitory concentration (MIC) in data set [10] (setting [21]) was 0.5 µg/mL; in data set [10] (setting [22]) it was 16 µg/mL; in [10] (setting [23]), 2 µg/mL; in [10] (setting [24]), 1.4 µM; in data set [10] (setting [25]), 45.8 µM; in data set [10] (setting [26]) it was 5.72 µM. Moreover, the minimal inhibitory concentration (MIC) in [11] was 0.5 to 16 µg/mL (≈ 1.43 to 45.8 µM).
